Assay results published in patent US6747033B2, “Fungicidal triazolopyrimid-7-ylideneamines” (BASF Aktiengesellschaft, priority 2000, dated 2004).
Read-outs that look alike come from different tables or passages of the source.

Legend:
Venturia inaequalis = assay: In vivo fungicidal activity, Apple Scab (AS); note: ranges in brackets are in %
Plasmopara viticola = assay: In vivo fungicidal activity, Grape downy mildew (GDM); note: ranges in brackets are in %
Botrytis cinera = assay: In vivo fungicidal activity, Pepper Botrytis (PB); note: ranges in brackets are in %
[1] = tested on: Pyricularia grisea f. sp. oryzae; type: in vivo; settings: Rice Blast
Cercospora beticola = assay: In vivo fungicidal activity, Sugar Beet Cercospora (SBC); note: ranges in brackets are in %
Alternara solani = assay: In vivo fungicidal activity, Tomato early blight (TEB); note: ranges in brackets are in %
Blumeria graminis = assay: In vivo fungicidal activity, Wheat powdery mildew (WPM); note: ranges in brackets are in %
[2] = tested on: Pseudocercosporella herpotrichoides; assay: In vitro fungicidal activity, Cereal eye spot (PSDCHE); type: cell-based; set-up: key: 0: None; 3: slight; 5: moderate; 7: severe; 9: complete; settings: 3-7 days of incubation
Procedure, shortened: (§1)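 Compounds in acetone at 25, 10 and 1 ppm were added to wells holding ground fungal mycelium suspended in chemically defined growth medium. Growth inhibition was scored on a rating scale after 3–7 days of incubation.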

Pythium ultimum = assay: In vitro fungicidal activity, Fruit rot (PYTHUL); type: cell-based; set-up: key: 0: None; 3: slight; 5: moderate; 7: severe; 9: complete; settings: 3-7 days of incubation
Procedure, shortened: as §1

Rhizoctonia solani = assay: In vitro fungicidal activity, Rice sheath blight (RHIZSO); type: cell-based; set-up: key: 0: None; 3: slight; 5: moderate; 7: severe; 9: complete; settings: 3-7 days of incubation
Procedure, shortened: as §1

Compound | AS disease control rating (Venturia inaequalis; 12.5 ppm spray) | AS disease control rating (Venturia inaequalis; 50 ppm spray) | AS disease control rating (Venturia inaequalis; 200 ppm spray) | GDM disease control rating (Plasmopara viticola; 12.5 ppm spray) | GDM disease control rating (Plasmopara viticola; 50 ppm spray) | GDM disease control rating (Plasmopara viticola; 200 ppm spray) | PB disease control rating (Botrytis cinera; 12.5 ppm spray) | PB disease control rating (Botrytis cinera; 50 ppm spray) | PB disease control rating (Botrytis cinera; 200 ppm spray) | RB disease control rating ([1]; 12.5 ppm spray) | RB disease control rating ([1]; 50 ppm spray) | RB disease control rating ([1]; 200 ppm spray) | SBC disease control rating (Cercospora beticola; 12.5 ppm spray) | SBC disease control rating (Cercospora beticola; 50 ppm spray) | SBC disease control rating (Cercospora beticola; 200 ppm spray) | TEB disease control rating (Alternara solani; 12.5 ppm spray) | TEB disease control rating (Alternara solani; 50 ppm spray) | TEB disease control rating (Alternara solani; 200 ppm spray) | WPM disease control rating (Blumeria graminis; 12.5 ppm spray) | WPM disease control rating (Blumeria graminis; 50 ppm spray) | further results
CCn1cnn2c(=NC(C)C(F)(F)F)c(-c3c(F)cc(F)cc3F)c(Cl)nc12 (stereo not drawn) [Example 10] | 0 (0) | 0 (0) | 6 (75-89) | 0 (0) | 0 (0) | 0 (0) | 4 (45-59) | 0 (0) | 0 (0) | 0 (0) | 4 (45-59) | 6 (75-89) | 3 (30-44) | 6 (75-89) | 6 (75-89) | 0 (0) | 4 (45-59) | 5 (60-74) | 0 (0) | 0 (0) | WPM disease control rating (Blumeria graminis; 200 ppm spray): 0 (0); PSDCH inhibition of mycelial growth rating ([2]; 1 ppm): 0; PSDCH inhibition of mycelial growth rating ([2]; 10 ppm): 0; PSDCH inhibition of mycelial growth rating ([2]; 25 ppm): 0; PYTHU inhibition of mycelial growth rating (Pythium ultimum; 1 ppm): 0; PYTHU inhibition of mycelial growth rating (Pythium ultimum; 10 ppm): 3; PYTHU inhibition of mycelial growth rating (Pythium ultimum; 25 ppm): 5; RHIZSO inhibition of mycelial growth rating (Rhizoctonia solani; 1 ppm): 0; RHIZSO inhibition of mycelial growth rating (Rhizoctonia solani; 10 ppm): 5; RHIZSO inhibition of mycelial growth rating (Rhizoctonia solani; 25 ppm): 5
CCCn1cnn2c(=NC(C)C(F)(F)F)c(-c3c(F)cc(F)cc3F)c(Cl)nc12 (stereo not drawn) [Example 11] | 0 (0) | 6 (75-89) | 7 (90-95) | 0 (0) | 0 (0) | 3 (30-44) | 0 (0) | 0 (0) | 0 (0) | 0 (0) | 3 (30-44) | 4 (45-59) | 0 (0) | 0 (0) | 3 (30-44) | 0 (0) | 0 (0) | 0 (0) | 0 (0) | 0 (0) | WPM disease control rating (Blumeria graminis; 200 ppm spray): 0 (0); PSDCH inhibition of mycelial growth rating ([2]; 1 ppm): 0; PSDCH inhibition of mycelial growth rating ([2]; 10 ppm): 0; PSDCH inhibition of mycelial growth rating ([2]; 25 ppm): 0; PYTHU inhibition of mycelial growth rating (Pythium ultimum; 1 ppm): 0; PYTHU inhibition of mycelial growth rating (Pythium ultimum; 10 ppm): 1; PYTHU inhibition of mycelial growth rating (Pythium ultimum; 25 ppm): 1; RHIZSO inhibition of mycelial growth rating (Rhizoctonia solani; 1 ppm): 0; RHIZSO inhibition of mycelial growth rating (Rhizoctonia solani; 10 ppm): 0; RHIZSO inhibition of mycelial growth rating (Rhizoctonia solani; 25 ppm): 0
N-[5-chloro-3-methyl-6-(2,4,6-trifluorophenyl)-4H-[1,2,4]triazolo[1,5-α]pyrimidin-7-ylidene]-N-(2,2,2-trifluoroethyl)-amine [Example 1B] | 4 (45-59) | 4 (45-59) | 5 (60-74) | 0 (0) | 0 (0) | 7 (90-95) | 0 (0) | 0 (0) | 6 (75-89) | 0 (0) | 0 (0) | 5 (60-74) | 0 (0) | 6 (75-89) | 6 (75-89) | 0 (0) | 2 (15-29) | 4 (45-59) | 0 (0) | 0 (0) | WPM disease control rating (Blumeria graminis; 200 ppm spray): 0 (0); PSDCH inhibition of mycelial growth rating ([2]; 1 ppm): 0; PSDCH inhibition of mycelial growth rating ([2]; 10 ppm): 1; PSDCH inhibition of mycelial growth rating ([2]; 25 ppm): 3; PYTHU inhibition of mycelial growth rating (Pythium ultimum; 1 ppm): 0; PYTHU inhibition of mycelial growth rating (Pythium ultimum; 10 ppm): 1; PYTHU inhibition of mycelial growth rating (Pythium ultimum; 25 ppm): 5; RHIZSO inhibition of mycelial growth rating (Rhizoctonia solani; 1 ppm): 5; RHIZSO inhibition of mycelial growth rating (Rhizoctonia solani; 10 ppm): 5; RHIZSO inhibition of mycelial growth rating (Rhizoctonia solani; 25 ppm): 5
